Assay results: US20130143969A1 (THE OHIO STATE UNIVERSITY, priority 2010, published 2013)

How the values were obtained:
DNMT1 [1] = experiment: Ex vivo DNMT1 mRNA and protein in AML patient primary blast cells; format: cell-based, human
Experimental: (§1) Cell Cycle and Apoptosis Analysis: MV4-11, ML-1, HL-60 and K562 leukemia cell lines were cultured in RPMI medium (VWR International, Inc., West Chester, Pa.) supplemented with 10% fetal bovine serum (Invitrogen, Carlsbad, Calif.) and 1% (v/v) penicillin/streptomycin (Invitrogen Life Technologies; Carlsbad, Calif.) antibiotic solution at 37° C. in an incubator under 5% CO2 atmosphere. […] The cell cycle and apoptosis of MV4-11 cells was analyzed on a BD FACS Calibur (Beckman Coulter, Fullerton, Calif.) according to the standard protocol provided by the manufacturer.
(§2) Cells or tumor tissues were homogenized and lysed in ice-cold lysis buffer (20 mM, pH 7.0 HEPES, 150 mM NaCl, 0.1% NP40 supplemented with 1 mM β-glycerophosphate, 1 mM Na3VO4, 1 mM NaF, 1 mM benzamide and 1 mM phenylmethylsulfonyl fluoride) with protease inhibitors (Protease Inhibitor cocktail Set III, Calbiochem-Novabiochem Corporation, La Jolla, Calif.), and incubated on ice for 20 mM. […] The immunoblotted proteins were detected by ECL reagent (GE Healthcare Bio-Sciences Corp., Piscataway, N.J.).
Quantitative RT-PCR was used to quantify the mRNA levels of DNMT1, DNMT3a, DNMT3b, p15INK4B and p21. […] Quantitative real-time PCR reactions were performed in triplicate using Taqman gene expression assay (Applied Biosystems) with an ABI prism 7700 detector (Applied Biosystems). […]

HL-60 cells = experiment: Cell viability / anti-proliferation; format: cell-based
K562 = experiment: Cytotoxicity; format: cell-based; conditions: Homo sapiens
[2] = rats, orally administered; cited from earlier work
DNMT1 [3] = experiment: Quantitative RT-PCR of DNMT1 transcripts in MV4-11 cells; format: cell-based; design: dose or concentration left out as unconfirmed; conditions: curcumin
Experimental: as §1, with “atmosphere. For the ex-vivo studies, mononuclear cells obtained from bone marrow (BM) of patient with AML were prepared by Ficoll-Hypaque (Nygaard) gradient centrifugation and cultured with serum-free expansion medium (SFEM) (StemCell technologies, Vancouver, BC) supplemented with GM-CSF (50 ng/ml), IL-3 (20 ng/ml), IL-6 (20 ng/ml) and SCF ([…]).” for “atmosphere.”
Quantitative RT-PCR was used to quantify the mRNA levels of DNMT1, DNMT3a, DNMT3b, p15INK4B and p21. […] Quantitative real-time PCR reactions were performed in triplicate using Taqman gene expression assay (Applied Biosystems) with an ABI prism 7700 detector (Applied Biosystems). The target gene values were normalized to the values of internal control GAPDH or 18 S, and expressed as relative percent change (100×2^(˜ΔΔCt)) over non-treated samples.

[4] = tested on: MV4-11 leukemia cell-engrafted animal model; experiment: Xenograft animal model, anti-tumor growth activity; format: in vivo, athymic nu/nu mice
Experimental: Female athymic nu/nu mice (4-6 weeks old, 18-22 g) were obtained from Charles River Laboratory (Wilmington, Mass.) and acclimated for 1 week in a pathogen-free enclosure before start of study. Animals were given sterile rodent chow and water ad libitum and were housed in sterile filter-top cages with 12 hour light/dark cycles. All experiments were conducted in accordance with the guidelines of the Association for Assessment and Accreditation of Laboratory Animal Care International. MV4-11 cells (5×10^6 cells per mouse) were suspended with 50% Matrigel (Becton Dickinson) and subcutaneously implanted into both right and left flanks of the athymic nu/nu mice. When tumors were grown between 100 to 200 mm^3, treatments were initiated. Mice were randomly assigned into two cohorts for the anti-tumor growth activity studies, with 6 mice per group. […] Tumor volume was calculated by using the equation V=2×A×B^2/3, where A is the longer (horizontal as width) diameter (mm) and B is the shorter (perpendicular as depth) diameter (mm) and expressed in cubic millimeter. After 4 weeks, mice were euthanized and tumor tissues were excised, snapfrozen in liquid nitrogen, weighed and stored in a −80° C. freezer until analysis.

[5] = tested on: p15^INK4B promoter region; experiment: DNA methylation analysis of the p15INK4B promoter region (LC-MS/MS); format: cell-based; conditions: MV4-11 cells, 10 μM curcumin, 72 hours
Experimental: Genomic DNA isolated from MV4-11 cells was treated with bisulfite using the Epi methylation Kit (Qiagen, Minneapolis, Minn.) according to the instruction from the manufacturer and followed by PCR amplification as follows. The sequences of p15^INK4B primers were: forward 5′-GGGAGGGTAATGAAGTTGAGTTTA-3′ (SEQ ID NO. 1), and reverse 5′-ACCCTAAAACCCCAACTACCTAAAT-3′ (SEQ ID NO. 2). PCR amplifications were performed as follows: 95° C. for 5.5 min, 55° C. for 30s for 5 cycles, and 52° C. for 30 s for 38 cycles, 72° C. for 30s for 38 cycles, with a final step at 72° C. for 1 min. PCRs were carried out in a 100 μl volume containing 10 μl of buffer (10×), 2 μL of each primer (10 μM), 2 μL of (10 mM) dNTPs, 2 U of Platinum Taq DNA polymerase (Invitrogen, Carlsbad, Calif.), 70.6 μL ddH2O and 10 μL of bisulfite treated DNA in a GeneAmp 9700 thermal cycler (Perkin-Elmer, Norwalk, Conn.). PCR products were purified using QIAquick columns and eluted in water. A 500 ng aliquot of the PCR product was incubated with 25 UM. […] Fully methylated PCR products were purified using the QIAquick PCR Purification kit (Qiagen, Minneapolis, Minn.), according to the manufacturer's instructions and 200 ng of the purified DNA was hydrolyzed and the concentrations of 5mdC and 2dC in the hydrolysate were measured by LC-MS/MS using the conditions as described previously.

DNMT1 [6] = experiment: Western blot of DNMT1 protein in leukemia cells; format: cell-based
Experimental: as §1, §2

[7] = day 29 after the treatment, i.p. 100 mg/kg

COc1cc(/C=C/C(=O)CC(=O)/C=C/c2ccc(O)c(OC)c2)ccc1O [curcumin]
DNMT1 mRNA (DNMT1 [1]): down-regulate
DNMT1 protein level (DNMT1 [1]): down-regulate
cell viability decreased to (HL-60 cells; HL-60 cells (FIG. 13B)): 60-70%
IC50 (HL-60 cells; Homo sapiens, HL-60): 10 to 15 µM
IC50 (K562): 10.4 µM
elimination half-life (T1/2) [2]: 1.7 ± 0.5 h
decrease in the level of DNMT1 transcripts compared to untreated control (DNMT1 [3]; 48 hours): 70%
decrease in the level of DNMT1 transcripts compared to untreated control (DNMT1 [3]; 72 hours): 90%
tumor size decrease ([4]; MV4-11 engrafted nude mice (summary)): about 65%
reduction of tumor size [4, 7]: 3854 mm^3
reduction of tumor weight [4, 7]: 65%
body weight ([4]; i.p. 100 mg/kg five days a week, 4 weeks): No significant weight loss
decrease of tumor growth rate compared with control ([4]; i.p. 100 mg/kg, linear mixed effect model): 142.5 mm^3 per day
life span of MV4-11 engrafted nude mice ([4]; pilot study): 6 weeks
average tumor weight ([4]; treatment group): 3.6 g
decrease of p15INK4B promoter methylation level [5]: about 40%
DNMT1 protein level decrease (DNMT1 [6]; ML-1 cells): 50%
DNMT1 protein level (DNMT1 [6]; MV4-11 cells, 10 μM): completely depleted
